According to article PMC9645260, “Small-molecule inhibitors of P-Rex guanine-nucleotide exchange factors” (Small GTPases, 2022):

How the values were obtained:
Rac1 or Rac2 = test: Basal GTP-loading of Rac in the absence of P-Rex1 (liposome-based assay); type: biochemical, human; conditions: 10 µM
Source text: All small GTPases and GEFs used were human recombinant proteins. EE-Rac1, EE-Rac2, GST-Cdc42 or GST-RhoA were expressed in Sf9 cells by baculoviral transduction and purified using their epitope tag in their post-translationally prenylated form using Triton X-114 phase separation, essentially as previously described. Briefly, frozen pellets from a 1 litre culture of Sf9 cells transduced with high-titre baculovirus expressing the small GTPase were resuspended in ice-cold Sf9-cell lysis buffer 1 (1x PBS, 40 mM HEPES pH 7.5 at RT, 5 mM MgCl2, 10 mM EGTA, 300 µM GDP, 1 mM DTT, 200 µM PMSF, 20 μg/ml each of leupeptin, pepstatin A, aprotinin and antipain) and lysed by sonication. Triton X-114 was added (to 1% final concentration), and samples were ultracentrifuged at 118,000 × g for 50 min at 4°C. The supernatant was warmed at 37°C until cloudy (30–60 seconds) and centrifuged at 1300 × g for 2 min at 37°C. The upper phase containing non-lipid modified GTPase was discarded and replaced with ice-cold Sf9-cell lysis buffer. The warming/centrifugation steps were repeated twice and lipid-modified GTPase resuspended in ice-cold Sf9-cell lysis buffer 1 supplemented with Triton X-100 (1% final concentration), followed by ultracentrifugation at 118,000 × g for 50 min at 4°C. […] Protein concentration and purity was determined by coomassie staining of SDS-PAGE gels. […]

full-length P-Rex1 = target: T1, full-length P-Rex1 (Homo sapiens, UniProt Q8TCU6); test: Liposome-based GEF activity assay, PIP3-stimulated full-length P-Rex1; type: biochemical; conditions: for effect on PIP3-stimulated Rac-GEF activity of full-length P-Rex1: 1, 5 and 10 µM, Rac1 or Rac2 as substrate
T1 construct: Full-length N-terminally EE-tagged P-Rex1, P-Rex2, the P-Rex1 DH and DHPH domains and the P-Rex2 DH domain were produced in Sf9 cells; made in house; host or cells: Sf9 cells (baculovirus)
T1 sequence (Q8TCU6 whole entry, the tested form may be a part): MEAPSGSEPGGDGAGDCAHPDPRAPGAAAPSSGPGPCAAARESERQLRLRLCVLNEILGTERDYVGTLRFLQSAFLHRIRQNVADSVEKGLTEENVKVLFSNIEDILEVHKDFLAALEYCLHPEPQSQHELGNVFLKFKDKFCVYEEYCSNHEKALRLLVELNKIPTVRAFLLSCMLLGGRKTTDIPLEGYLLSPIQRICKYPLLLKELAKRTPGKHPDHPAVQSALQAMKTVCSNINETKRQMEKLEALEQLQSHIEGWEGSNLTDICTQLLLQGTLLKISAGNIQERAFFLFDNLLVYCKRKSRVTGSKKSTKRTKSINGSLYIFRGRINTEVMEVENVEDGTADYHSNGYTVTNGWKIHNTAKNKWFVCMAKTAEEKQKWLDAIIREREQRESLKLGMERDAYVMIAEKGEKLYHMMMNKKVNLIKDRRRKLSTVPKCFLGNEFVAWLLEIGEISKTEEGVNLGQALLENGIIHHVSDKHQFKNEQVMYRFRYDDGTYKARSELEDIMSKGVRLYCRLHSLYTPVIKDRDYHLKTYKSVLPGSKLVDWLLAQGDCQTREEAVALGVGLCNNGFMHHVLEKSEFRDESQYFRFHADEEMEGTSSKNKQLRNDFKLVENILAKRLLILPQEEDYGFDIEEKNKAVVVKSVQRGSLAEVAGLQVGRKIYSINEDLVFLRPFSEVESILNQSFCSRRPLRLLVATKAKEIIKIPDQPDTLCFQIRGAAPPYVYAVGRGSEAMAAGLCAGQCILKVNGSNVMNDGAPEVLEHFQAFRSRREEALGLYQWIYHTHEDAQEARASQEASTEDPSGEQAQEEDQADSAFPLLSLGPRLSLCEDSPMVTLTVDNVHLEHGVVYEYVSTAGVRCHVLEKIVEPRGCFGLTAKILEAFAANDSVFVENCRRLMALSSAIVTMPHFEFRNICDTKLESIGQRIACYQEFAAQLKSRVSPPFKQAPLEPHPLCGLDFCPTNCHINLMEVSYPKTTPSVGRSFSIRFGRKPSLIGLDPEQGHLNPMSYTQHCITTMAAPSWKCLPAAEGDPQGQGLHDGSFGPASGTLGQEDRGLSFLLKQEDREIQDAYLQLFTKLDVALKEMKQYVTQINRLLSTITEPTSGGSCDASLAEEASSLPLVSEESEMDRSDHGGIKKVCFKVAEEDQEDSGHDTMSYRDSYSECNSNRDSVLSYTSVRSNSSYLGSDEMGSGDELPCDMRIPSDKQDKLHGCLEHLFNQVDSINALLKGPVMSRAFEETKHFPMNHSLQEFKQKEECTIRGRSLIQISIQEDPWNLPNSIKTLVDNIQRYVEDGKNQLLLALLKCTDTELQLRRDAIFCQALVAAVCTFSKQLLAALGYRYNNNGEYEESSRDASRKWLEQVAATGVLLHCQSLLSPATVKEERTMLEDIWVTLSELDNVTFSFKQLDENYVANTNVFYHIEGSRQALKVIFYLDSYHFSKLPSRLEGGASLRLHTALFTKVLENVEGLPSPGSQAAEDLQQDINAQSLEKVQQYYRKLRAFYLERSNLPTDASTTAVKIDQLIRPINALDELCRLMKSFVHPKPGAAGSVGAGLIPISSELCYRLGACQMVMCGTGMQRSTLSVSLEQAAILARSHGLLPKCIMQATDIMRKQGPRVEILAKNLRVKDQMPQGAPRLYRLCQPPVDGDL
Source text: All small GTPases and GEFs used were human recombinant proteins. EE-Rac1, EE-Rac2, GST-Cdc42 or GST-RhoA were expressed in Sf9 cells by baculoviral transduction and purified using their epitope tag in their post-translationally prenylated form using Triton X-114 phase separation, essentially as previously described. Briefly, frozen pellets from a 1 litre culture of Sf9 cells transduced with high-titre baculovirus expressing the small GTPase were resuspended in ice-cold Sf9-cell lysis buffer 1 (1x PBS, 40 mM HEPES pH 7.5 at RT, 5 mM MgCl2, 10 mM EGTA, 300 µM GDP, 1 mM DTT, 200 µM PMSF, 20 μg/ml each of leupeptin, pepstatin A, aprotinin and antipain) and lysed by sonication. Triton X-114 was added (to 1% final concentration), and samples were ultracentrifuged at 118,000 × g for 50 min at 4°C. The supernatant was warmed at 37°C until cloudy (30–60 seconds) and centrifuged at 1300 × g for 2 min at 37°C. The upper phase containing non-lipid modified GTPase was discarded and replaced with ice-cold Sf9-cell lysis buffer. The warming/centrifugation steps were repeated twice and lipid-modified GTPase resuspended in ice-cold Sf9-cell lysis buffer 1 supplemented with Triton X-100 (1% final concentration), followed by ultracentrifugation at 118,000 × g for 50 min at 4°C. For EE-tagged GTPases, supernatants were incubated with anti-EE antibody covalently coupled to protein G-Sepharose beads (anti-EE beads, Onyx Pharmaceuticals) and incubated with end-over-end rotation for 90 min on ice. Beads were washed 3 times in wash buffer (PBS, 5 mM MgCl2, 1 mM DTT, 10 μM GDP, 1 mM EGTA, 0.2% Triton X-100) and 5x in elution buffer (40 mM HEPES pH 7.5, 150 mM NaCl, 5 mM MgCl2, 1 mM EGTA, 1 mM DTT, 10 µM GDP). Protein was eluted by three incubations with elution buffer containing peptide Ac-EEYMPME (Activotec, Comberton, UK) and cholate (first 1%, then twice 0.5%) for 20 min on ice. For GST-tagged GTPases, supernatants were incubated with glutathione Sepharose beads and were eluted with glutathione in the same manner. Proteins were concentrated in a YM-10 Centricon (Millipore) at 5000 × g, 4°C. Protein concentration and purity was determined by coomassie staining of SDS-PAGE gels. For use in the mant-GTP assay, EE-Rac 1 was expressed in BL21 (DE3) bacteria (NEB, C25271), by induction with 0.5 mM IPTG overnight at 18°C. Bacterial pellets from 500 ml cultures were resuspended in 20 ml bacterial lysis buffer (40 mM Hepes, pH 7.5 at 4°C, 150 mM NaCl, 1% Triton X-100, 5 mM MgCl2, 1 mM DTT, 300 μM GDP, 200 µM PMSF, and 20 μg/ml each of leupeptin, pepstatin A, aprotinin and antipain) and were lysed by sonication. 5 μg/ml DNAse and 5 μg/ml RNAse were added and the lysate incubated on ice for 10 min. […]

Row | SMILES | effect on basal GTP-loading of Rac1 or Rac2 in the absence of P-Rex1 (Rac1 or Rac2) | effect on PIP3-stimulated Rac-GEF activity of full-length P-Rex1 (full-length P-Rex1) | reduction of PIP3-stimulated Rac-GEF activity of full-length P-Rex1 (full-length P-Rex1; 10 µM, 50 nM P-Rex1, 100 nM prenylated Rac1, 10 µM PIP3) [%]
1 | CC1CCC(C(C)C)c2nn(C(=O)/C=C\c3ccccc3)c(-c3cccc4ccccc34)c21 (centres unmarked) [#10] | neither compound affected | inhibited | –
2 | COc1ccc(-c2[nH]nc3c2C(c2ccc(-c4ccc(Cl)cc4)o2)C(C#N)=C(N)O3)cc1 (centres unmarked) [PREX-in1, 6-amino-4-[5-(4-chlorophenyl)-2-furyl]-3-(4-methoxyphenyl)-2,4-dihydropyrano[2,3-c]pyrazole-5-carbonitrile] | neither compound affected | inhibited | 56
